The results in this text go back to patent US8987286B2, “Substituted pyrimido[1,2-b]indazoles and their use as modulators of the Pi3K/Akt pathway” (Bayer Intellectual Property GmbH, priority 2010, dated 2015).

Structures can show the parent of a compound that is named as a salt.

Chain of Akt1 (P31749 whole entry): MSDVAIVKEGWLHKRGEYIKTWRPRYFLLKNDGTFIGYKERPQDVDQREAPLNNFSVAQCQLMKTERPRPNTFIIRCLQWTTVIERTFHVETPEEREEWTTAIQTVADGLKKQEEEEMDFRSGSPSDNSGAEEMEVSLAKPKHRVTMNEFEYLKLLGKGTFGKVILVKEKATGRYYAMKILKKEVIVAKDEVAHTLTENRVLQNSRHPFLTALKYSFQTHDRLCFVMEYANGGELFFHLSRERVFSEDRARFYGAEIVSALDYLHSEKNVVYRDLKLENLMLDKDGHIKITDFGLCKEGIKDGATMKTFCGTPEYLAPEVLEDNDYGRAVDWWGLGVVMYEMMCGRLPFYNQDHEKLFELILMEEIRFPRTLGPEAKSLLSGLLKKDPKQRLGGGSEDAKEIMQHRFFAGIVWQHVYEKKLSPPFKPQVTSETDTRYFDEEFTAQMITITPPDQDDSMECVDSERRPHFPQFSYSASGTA

This test has as its target Akt1 (Homo sapiens (Human), UniProt P31749). In words: Akt1 kinase assay (Akt1 TR-FRET assay). The format is biochemical. The note with it: His-tagged human recombinant full-length Akt1, 10 μM ATP, 1 μM peptide substrate. An excerpt: Biological Assay 1.0: Akt1 Kinase Assay
Akt1 inhibitory activity of compounds of the present invention was quantified employing the Akt1 TR-FRET assay as described in the following paragraphs.
His-tagged human recombinant kinase full-length Akt1 expressed in insect cells was purchased form Invitrogen (part number PV 3599). As substrate for the kinase reaction the biotinylated peptide biotin-Ahx-KKLNRTLSFAEPG (C-terminus in amide form) was used which can be purchased e.g. from the company Biosynthan GmbH (Berlin-Buch, Germany).
For the assay 50 nl of a 100 fold concentrated solution of the test compound in DMSO was pipetted into a black low volume 384 well microtiter plate (Greiner Bio-One, Frickenhausen, Germany), 2 μl of a solution of Akt1 in assay buffer [50 mM TRIS/HCl pH 7.5, 5 mM MgCl2, 1 mM dithiothreitol, 0.02% (v/v) Triton X-100 (Sigma)] were added and the mixture was incubated for 15 min at 22° C. to allow pre-binding of the test compounds to the enzyme before the start of the kinase reaction. Then the kinase reaction was started by the addition of 3 μl of a solution of adenosine-tri-phosphate (ATP, 16.7 μM=>final conc. in the 5 μl assay volume is 10 μM) and substrate (1.67 μM=>final conc. in the 5 μl assay volume is 1 μM) in assay buffer and the resulting mixture was incubated for a reaction time of 60 min at 22° C. The concentration of Akt1 in the assay was adjusted depending of the activity of the enzyme lot and was chosen appropriate to have the assay in the linear range, typical enzyme concentrations were in the range of about 0.05 ng/μl (final conc. in the 5 μl assay volume).
The reaction was stopped by the addition of 5 μl of a solution of HTRF detection reagents (200 nM streptavidine-XL665 [Cisbio] and 1.5 nM anti-phosho-Serine antibody [Millipore, cat. #35-001] and 0.75 nM LANCE Eu-W 1024 labeled anti-mouse IgG antibody [Perkin Elmer]) in an aqueous EDTA-solution (100 mM EDTA, 0.1% (w/v) bovine serum albumin in 50 mM HEPES/NaOH pH 7.5).
The resulting mixture was incubated 1 h at 22° C. to allow the binding of the biotinylated phosphorylated peptide to the streptavidine-XL665 and the antibodies. Subsequently the amount of phosphorylated substrate was evaluated by measurement of the resonance energy transfer from the anti-mouse-IgG-Eu-Chelate to the streptavidine-XL665. Therefore, the fluorescence emissions at 620 nm and 665 nm after excitation at 350 nm was measured in a HTRF reader, e.g. a Rubystar (BMG Labtechnologies, Offenburg, Germany) or a Viewlux (Perkin-Elmer). The ratio of the emissions at 665 nm and at […] was taken as the measure for the amount of phosphorylated substrate. The data were normalised (enzyme reaction without inhibitor=0% inhibition, all other assay components but no enzyme=100% inhibition).
What is called IC50 is the concentration needed to halve the response being measured. In the case of `NC1(c2ccc(-c3nc4c5cc(F)ccc5nn4c(NC4CC4)c3-c3ccccc3)cc2)CCC1` [Example 2, 2-[4-(1-Aminocyclobutyl)phenyl]-N-cyclopropyl-9-fluoro-3-phenylpyrimido[1,2-b]indazol-4-amine], the IC50 is 528 nM.

In the case of `CNc1c(-c2ccccc2)c(-c2ccc(C3(N)CCC3)cc2)nc2c3cc(F)ccc3nn12` [Example 3, 2-[4-(1-Aminocyclobutyl)phenyl]-9-fluoro-N-methyl-3-phenylpyrimido[1,2-b]indazol-4-amine], the IC50 was determined as 2630 nM.

On to `N#Cc1cccc(-c2ccc3c(c2)nn2cc(-c4ccccc4)c(-c4ccc(C5(N)CCC5)cc4)nc32)c1` [Example 4, 3-{2-[4-(1-Aminocyclobutyl)phenyl]-3-phenylpyrimido[1,2-b]indazol-8-yl}-benzonitrile], for which the IC50 stood at 140 nM.

For `CS(=O)(=O)c1ccc(-c2ccc3c(c2)nn2cc(-c4ccccc4)c(-c4ccc(C5(N)CCC5)cc4)nc32)cc1` [Example 4.1, 1-{4-[8-(4-Mesylphenyl)-3-phenylpyrimido[1,2-b]indazol-2-yl]-phenyl}cyclobutylamine], the IC50 is 59 nM.

Turning to `NC1(c2ccc(-c3nc4c5ccc(-c6ccc(F)cc6)cc5nn4cc3-c3ccccc3)cc2)CCC1` [Example 4.2, 1-{4-[8-(4-Fluorophenyl)-3-phenylpyrimido[1,2-b]indazol-2-yl]-phenyl}cyclobutylamine], the IC50 was found to be 229 nM.

Take `NC1(c2ccc(-c3nc4c5ccc(Br)cc5nn4cc3-c3ccccc3)cc2)CCC1` [Example 4.3, 1-[4-(8-Bromo-3-phenylpyrimido[1,2-b]indazol-2-yl)phenyl]cyclobutylamine hydrochloride]: the IC50 worked out at 87 nM.

As to `NC1(c2ccc(-c3nc4c5ccc(-c6ccc(F)c(CO)c6)cc5nn4cc3-c3ccccc3)cc2)CCC1` [Example 4.4, 5-{2-[4-(1-Aminocyclobutyl)phenyl]-3-phenylpyrimido[1,2-b]indazol-8-yl}-2-fluorobenzyl alcohol], the IC50 worked out at 43 nM.

Take `NC1(c2ccc(-c3nc4c5ccc(-c6ccc(F)c(O)c6)cc5nn4cc3-c3ccccc3)cc2)CCC1` [Example 4.5, 5-{2-[4-(1-Aminocyclobutyl)phenyl]-3-phenylpyrimido[1,2-b]indazol-8-yl}-2-fluorophenol formiate]: the IC50 was 35 nM.

Take `COc1cc(-c2ccc3c(c2)nn2cc(-c4ccccc4)c(-c4ccc(C5(N)CCC5)cc4)nc32)ccc1F` [Example 4.6, 1-{4-[8-(4-Fluoro-3-methoxyphenyl)-3-phenylpyrimido[1,2-b]indazol-2-yl]phenyl}cyclobutylamine]: the IC50 is 458 nM.

On to `CS(=O)(=O)c1cccc(-c2ccc3c(c2)nn2cc(-c4ccccc4)c(-c4ccc(C5(N)CCC5)cc4)nc32)c1` [Example 4.7, 1-{4-[8-(3-Mesylphenyl)-3-phenylpyrimido[1,2-b]indazol-2-yl]phenyl}cyclobutylamine formiate], for which the IC50 is 25 nM.

In the case of `COC(=O)c1ccc2c(c1)nn1cc(-c3ccccc3)c(-c3ccc(C4(N)CCC4)cc3)nc21` [Example 4.8, 2-[4-(1-Aminocyclobutyl)phenyl]-3-phenylpyrimido[1,2-b]indazole-8-carboxylic acid methyl ester], the IC50 was 111 nM.

In the case of `NC(=O)c1cccc(-c2ccc3c(c2)nn2cc(-c4ccccc4)c(-c4ccc(C5(N)CCC5)cc4)nc32)c1` [Example 4.9, 3-{2-[4-(1-Aminocyclobutyl)phenyl]-3-phenylpyrimido[1,2-b]indazol-8-yl}benzamide], the IC50 is 16 nM.

With `NC(=O)c1ccc(-c2ccc3c(c2)nn2cc(-c4ccccc4)c(-c4ccc(C5(N)CCC5)cc4)nc32)cc1` [Example 4.10, 4-{2-[4-(1-Aminocyclobutyl)phenyl]-3-phenylpyrimido[1,2-b]indazol-8-yl}benzamide], the IC50 stood at 21 nM.

Regarding `NC1(c2ccc(-c3nc4c5ccc(-c6cn[nH]c6)cc5nn4cc3-c3ccccc3)cc2)CCC1` [Example 4.11, 1-{4-[3-Phenyl-8-(1H-pyrazol-4-yl)pyrimido[1,2-b]indazol-2-yl]-phenyl}cyclobutylamine], the half-inhibitory concentration (IC50) worked out at 17 nM.

For the compound `NC1(c2ccc(-c3nc4c5ccc(-c6ccc(O)nc6)cc5nn4cc3-c3ccccc3)cc2)CCC1` [Example 4.12, 5-{2-[4-(1-Aminocyclobutyl)phenyl]3-phenylpyrimido[1,2-b]indazol-8-yl}pyridin-2-ol], the IC50 was 14 nM.

Take `COC(=O)c1ccc(-c2ccc3c(c2)nn2cc(-c4ccccc4)c(-c4ccc(C5(N)CCC5)cc4)nc32)cn1` [Example 4.13, 5-{2-[4-(1-Aminocyclobutyl)phenyl]-3-phenylpyrimido[1,2-b]indazol-8-yl}pyridine-2-carboxylic acid methyl ester]: the IC50 came out at 23 nM.

For the compound `Cc1ccc(-c2ccc3nn4cc(-c5ccccc5)c(-c5ccc(C6(N)CCC6)cc5)nc4c3c2)cc1` [Example 5.1, 1-[4-(3-Phenyl-9-p-tolylpyrimido[1,2-b]indazol-2-yl)phenyl]cyclobutylamine], the 50% inhibitory concentration (IC50) came to 120 nM.

On to `COC(=O)c1cccc(-c2ccc3nn4cc(-c5ccccc5)c(-c5ccc(C6(N)CCC6)cc5)nc4c3c2)c1` [Example 5.2, 3-{2-[4-(1-Aminocyclobutyl)phenyl]-3-phenylpyrimido[1,2-b]indazol-9-yl}benzoic acid methyl ester], for which the IC50 is 130 nM.

Turning to `NC1(c2ccc(-c3nc4c5cc(Br)ccc5nn4cc3-c3ccccc3)cc2)CCC1` [Example 6.1, 1-[4-(9-Bromo-3-phenylpyrimido[1,2-b]indazol-2-yl)phenyl]cyclobutylamine], the IC50 stood at 41 nM.

`N#Cc1ccc(-c2ccc3nn4cc(-c5ccccc5)c(-c5ccc(C6(N)CCC6)cc5)nc4c3c2)cc1` [Example 6.2, 4-{2-[4-(1-Aminocyclobutyl)phenyl]-3-phenylpyrimido[1,2-b]indazol-9-yl}benzonitrile formiate]: the IC50 was determined as 97 nM.

For the compound `NC1(c2ccc(-c3nc4c5cc(-c6cccc(CO)c6)ccc5nn4cc3-c3ccccc3)cc2)CCC1` [Example 6.3, 3-{2-[4-(1-Aminocyclobutyl)phenyl]-3-phenylpyrimido[1,2-b]indazol-9-yl}benzyl alcohol formiate], the IC50 worked out at 16 nM.

Regarding `NC1(c2ccc(-c3nc4c5cc(-c6ccc(CO)cc6)ccc5nn4cc3-c3ccccc3)cc2)CCC1` [Example 6.4, 4-{2-[4-(1-Aminocyclobutyl)phenyl]-3-phenylpyrimido[1,2-b]indazol-9-yl}benzyl alcohol formiate], the IC50 was found to be 18 nM.

For `NC1(c2ccc(-c3nc4c5cc(-c6ccc(S(N)(=O)=O)cc6)ccc5nn4cc3-c3ccccc3)cc2)CCC1` [Example 6.5, 4-{2-[4-(1-Aminocyclobutyl)phenyl]-3-phenylpyrimido[1,2-b]indazol-9-yl}benzenesulfonamide formiate], the IC50 was found to be 31 nM.

Regarding `NC1(c2ccc(-c3nc4c5cc(-c6ccc(F)c(CO)c6)ccc5nn4cc3-c3ccccc3)cc2)CCC1` [Example 6.6, 5-{2-[4-(1-Aminocyclobutyl)phenyl]-3-phenylpyrimido[1,2-b]indazol-9-yl}-2-fluorobenzyl alcohol], the IC50 is 10 nM.

Turning to `NC1(c2ccc(-c3nc4c5cc(-c6cn[nH]c6)ccc5nn4cc3-c3ccccc3)cc2)CCC1` [Example 6.7, 1-{4-[3-Phenyl-9-(1H-pyrazol-4-yl)pyrimido[1,2-b]indazol-2-yl]phenyl}-cyclobutylamine], the IC50 was 19 nM.
